From the NIST ThermoML archive (doi:10.1016/j.fluid.2010.01.020)
± gives the expanded uncertainty stated by the source.

Experiments:
[1] = Crystal
[2] = Molar enthalpy of transition or fusion; conditions: Crystal; DSC
[3] = xn = mol fraction of the nth substance listed; conditions: 101 kPa, Liquid, Vibrating tube method

**Q.** Which results are given for `CCn1cc[n+](C)c1.Cc1ccc(S(=O)(=O)[O-])cc1` [1-ethyl-3-methylimidazolium 4-methylbenzenesulfonate]?
**A.** Normal melting temperature ([1]; DTA): 49.2 ± 0.4 °C; Normal melting temperature ([1]; Solid-Liquid Equilibrium): 53.5 ± 0.4 °C; Molar enthalpy of transition or fusion [2]: 4.9 ± 0.115 kcal/mol

**Q.** With `CCn1cc[n+](C)c1.N#C[S-]` [1-ethyl-3-methylimidazolium thiocyanate] + O as the molecule, how does the mass density ([3]; 298.15 K, x1 = 0.0248) read?
**A.** 1016 ± 0.63 kg/m3

**Q.** What about the mass density ([3]; 298.15 K, x1 = 0.0635) of the same molecule?
**A.** 1036.86 ± 0.42 kg/m3

**Q.** And the mass density ([3]; 298.15 K, x1 = 0.1377)?
**A.** 1062.14 ± 0.3 kg/m3

**Q.** What about the mass density ([3]; 298.15 K, x1 = 0.2145) of the same molecule?
**A.** 1077.88 ± 0.21 kg/m3

**Q.** What about the mass density ([3]; 298.15 K, x1 = 0.3381) of the same molecule?
**A.** 1092.51 ± 0.23 kg/m3

**Q.** And the mass density ([3]; 298.15 K, x1 = 0.4198)?
**A.** 1098.72 ± 0.27 kg/m3

**Q.** What about the mass density ([3]; 298.15 K, x1 = 0.5599) of the same molecule?
**A.** 1105.92 ± 0.4 kg/m3

**Q.** What about the mass density ([3]; 298.15 K, x1 = 0.6524) of the same molecule?
**A.** 1109.2 ± 0.51 kg/m3

**Q.** And the mass density ([3]; 298.15 K, x1 = 0.7369)?
**A.** 1111.59 ± 0.63 kg/m3

**Q.** And the mass density ([3]; 298.15 K, x1 = 0.8256)?
**A.** 1113.68 ± 0.77 kg/m3

**Q.** What about the mass density ([3]; 298.15 K, x1 = 0.9263) of the same molecule?
**A.** 1115.64 ± 0.94 kg/m3

**Q.** And the mass density ([3]; 298.15 K, x1 = 1)?
**A.** 1116.84 ± 1.1 kg/m3

**Q.** And the mass density ([3]; 308.15 K, x1 = 0.0248)?
**A.** 1010.56 ± 0.62 kg/m3

**Q.** What about the mass density ([3]; 308.15 K, x1 = 0.0635) of the same molecule?
**A.** 1031.47 ± 0.4 kg/m3

**Q.** What about the mass density ([3]; 308.15 K, x1 = 0.1377) of the same molecule?
**A.** 1056.21 ± 0.29 kg/m3

**Q.** And the mass density ([3]; 308.15 K, x1 = 0.2145)?
**A.** 1071.45 ± 0.21 kg/m3

**Q.** What about the mass density ([3]; 308.15 K, x1 = 0.3381) of the same molecule?
**A.** 1086.08 ± 0.23 kg/m3

**Q.** And the mass density ([3]; 308.15 K, x1 = 0.4198)?
**A.** 1092.33 ± 0.26 kg/m3

**Q.** And the mass density ([3]; 308.15 K, x1 = 0.5599)?
**A.** 1099.59 ± 0.4 kg/m3

**Q.** What about the mass density ([3]; 308.15 K, x1 = 0.6524) of the same molecule?
**A.** 1102.99 ± 0.51 kg/m3

**Q.** What about the mass density ([3]; 308.15 K, x1 = 0.7369) of the same molecule?
**A.** 1105.42 ± 0.62 kg/m3

**Q.** What about the mass density ([3]; 308.15 K, x1 = 0.8256) of the same molecule?
**A.** 1107.51 ± 0.76 kg/m3

**Q.** What about the mass density ([3]; 308.15 K, x1 = 0.9263) of the same molecule?
**A.** 1109.54 ± 0.93 kg/m3

**Q.** And the mass density ([3]; 308.15 K, x1 = 1)?
**A.** 1110.73 ± 1.1 kg/m3

**Q.** And the mass density ([3]; 318.15 K, x1 = 0.0248)?
**A.** 1005.23 ± 0.61 kg/m3

**Q.** And the mass density ([3]; 318.15 K, x1 = 0.0635)?
**A.** 1025.75 ± 0.4 kg/m3

**Q.** And the mass density ([3]; 318.15 K, x1 = 0.1377)?
**A.** 1049.96 ± 0.29 kg/m3

**Q.** And the mass density ([3]; 318.15 K, x1 = 0.2145)?
**A.** 1064.98 ± 0.2 kg/m3

**Q.** And the mass density ([3]; 318.15 K, x1 = 0.3381)?
**A.** 1079.64 ± 0.23 kg/m3

**Q.** What about the mass density ([3]; 318.15 K, x1 = 0.4198) of the same molecule?
**A.** 1085.98 ± 0.26 kg/m3

**Q.** What about the mass density ([3]; 318.15 K, x1 = 0.5599) of the same molecule?
**A.** 1093.4 ± 0.39 kg/m3

**Q.** What about the mass density ([3]; 318.15 K, x1 = 0.6524) of the same molecule?
**A.** 1096.81 ± 0.5 kg/m3

**Q.** What about the mass density ([3]; 318.15 K, x1 = 0.7369) of the same molecule?
**A.** 1099.15 ± 0.61 kg/m3

**Q.** What about the mass density ([3]; 318.15 K, x1 = 0.8256) of the same molecule?
**A.** 1101.41 ± 0.75 kg/m3

**Q.** And the mass density ([3]; 318.15 K, x1 = 0.9263)?
**A.** 1103.5 ± 0.92 kg/m3

**Q.** And the mass density ([3]; 318.15 K, x1 = 1)?
**A.** 1104.67 ± 1.1 kg/m3

**Q.** What about the mass density ([3]; 328.15 K, x1 = 0.0248) of the same molecule?
**A.** 1000.09 ± 0.6 kg/m3

**Q.** And the mass density ([3]; 328.15 K, x1 = 0.0635)?
**A.** 1019.71 ± 0.39 kg/m3

**Q.** And the mass density ([3]; 328.15 K, x1 = 0.1377)?
**A.** 1043.71 ± 0.28 kg/m3

**Q.** And the mass density ([3]; 328.15 K, x1 = 0.2145)?
**A.** 1058.44 ± 0.2 kg/m3

**Q.** And the mass density ([3]; 328.15 K, x1 = 0.3381)?
**A.** 1073.2 ± 0.22 kg/m3

**Q.** What about the mass density ([3]; 328.15 K, x1 = 0.4198) of the same molecule?
**A.** 1079.65 ± 0.26 kg/m3

**Q.** What about the mass density ([3]; 328.15 K, x1 = 0.5599) of the same molecule?
**A.** 1087.19 ± 0.39 kg/m3

**Q.** And the mass density ([3]; 328.15 K, x1 = 0.6524)?
**A.** 1090.66 ± 0.49 kg/m3

**Q.** What about the mass density ([3]; 328.15 K, x1 = 0.7369) of the same molecule?
**A.** 1093.24 ± 0.61 kg/m3

**Q.** What about the mass density ([3]; 328.15 K, x1 = 0.8256) of the same molecule?
**A.** 1095.36 ± 0.74 kg/m3

**Q.** What about the mass density ([3]; 328.15 K, x1 = 0.9263) of the same molecule?
**A.** 1097.51 ± 0.91 kg/m3

**Q.** And the mass density ([3]; 328.15 K, x1 = 1)?
**A.** 1098.69 ± 1 kg/m3

**Q.** What about the mass density ([3]; 338.15 K, x1 = 0.0248) of the same molecule?
**A.** 994.12 ± 0.57 kg/m3

**Q.** What about the mass density ([3]; 338.15 K, x1 = 0.0635) of the same molecule?
**A.** 1013.39 ± 0.38 kg/m3

**Q.** What about the mass density ([3]; 338.15 K, x1 = 0.1377) of the same molecule?
**A.** 1036.7 ± 0.28 kg/m3

**Q.** What about the mass density ([3]; 338.15 K, x1 = 0.2145) of the same molecule?
**A.** 1051.85 ± 0.2 kg/m3

**Q.** What about the mass density ([3]; 338.15 K, x1 = 0.3381) of the same molecule?
**A.** 1066.76 ± 0.22 kg/m3

**Q.** And the mass density ([3]; 338.15 K, x1 = 0.4198)?
**A.** 1073.3 ± 0.25 kg/m3

**Q.** And the mass density ([3]; 338.15 K, x1 = 0.5599)?
**A.** 1081 ± 0.38 kg/m3

**Q.** What about the mass density ([3]; 338.15 K, x1 = 0.6524) of the same molecule?
**A.** 1084.56 ± 0.49 kg/m3

**Q.** What about the mass density ([3]; 338.15 K, x1 = 0.7369) of the same molecule?
**A.** 1087.14 ± 0.6 kg/m3

**Q.** What about the mass density ([3]; 338.15 K, x1 = 0.8256) of the same molecule?
**A.** 1089.34 ± 0.73 kg/m3

**Q.** And the mass density ([3]; 338.15 K, x1 = 0.9263)?
**A.** 1091.43 ± 0.9 kg/m3

**Q.** What about the mass density ([3]; 338.15 K, x1 = 1) of the same molecule?
**A.** 1092.73 ± 1 kg/m3

**Q.** And the mass density ([3]; 348.15 K, x1 = 0.0248)?
**A.** 987.53 ± 0.56 kg/m3

**Q.** And the mass density ([3]; 348.15 K, x1 = 0.0635)?
**A.** 1006.75 ± 0.39 kg/m3

**Q.** And the mass density ([3]; 348.15 K, x1 = 0.1377)?
**A.** 1030.27 ± 0.28 kg/m3

**Q.** What about the mass density ([3]; 348.15 K, x1 = 0.2145) of the same molecule?
**A.** 1045.17 ± 0.2 kg/m3

**Q.** What about the mass density ([3]; 348.15 K, x1 = 0.3381) of the same molecule?
**A.** 1060.28 ± 0.22 kg/m3

**Q.** And the mass density ([3]; 348.15 K, x1 = 0.4198)?
**A.** 1066.97 ± 0.25 kg/m3

**Q.** What about the mass density ([3]; 348.15 K, x1 = 0.5599) of the same molecule?
**A.** 1074.85 ± 0.37 kg/m3

**Q.** What about the mass density ([3]; 348.15 K, x1 = 0.6524) of the same molecule?
**A.** 1078.47 ± 0.48 kg/m3

**Q.** And the mass density ([3]; 348.15 K, x1 = 0.7369)?
**A.** 1081.08 ± 0.59 kg/m3

**Q.** And the mass density ([3]; 348.15 K, x1 = 0.8256)?
**A.** 1083.37 ± 0.72 kg/m3

**Q.** What about the mass density ([3]; 348.15 K, x1 = 0.9263) of the same molecule?
**A.** 1085.62 ± 0.88 kg/m3

**Q.** What about the mass density ([3]; 348.15 K, x1 = 1) of the same molecule?
**A.** 1086.83 ± 1 kg/m3

**Q.** Which mass density ([3]; 308.15 K, x2 = 0) does the source give for `O` [water] + CCn1cc[n+](C)c1.N#C[S-] here?
**A.** 992.03 ± 0.11 kg/m3

**Q.** What about the mass density ([3]; 318.15 K, x2 = 0) of the same molecule?
**A.** 987.02 ± 0.11 kg/m3

**Q.** And the mass density ([3]; 328.15 K, x2 = 0)?
**A.** 981.69 ± 0.11 kg/m3

**Q.** And the mass density ([3]; 338.15 K, x2 = 0)?
**A.** 977.03 ± 0.11 kg/m3

**Q.** What about the mass density ([3]; 348.15 K, x2 = 0) of the same molecule?
**A.** 971.75 ± 0.11 kg/m3
